The source of these data is patent publication US20050215621A1, “Method of treating amyloid beta precursor disorders” (Andrx Labs, LLC, priority 1999, published 2005).

SMILES strings stand for the structures.

The subject of experiment [1] is H4, MDCK, and CHO cells, expressing human APPm. The experiment in a line: [35S]-Met pulse-chase, immunoprecipitation (antibody 6E10) and autoradiography of Aβ peptides after 4 days with compound. The class given is cell-based, canine, Chinese hamster. The note with it: for decrease of extracellular Aβ peptides as compared to the untreated cells: 0.5 μM, 4 days, H4, MDCK, CHO cells. The protocol:
(§1) The three cell lines utilized were: Chinese Hamster Ovary (CHO) cells expressing the 751 amino acid form of APP; Mabin-Darby Canine Kidney (MDCK) cells which overexpress the 695 amino acid form of APP; Human neuroglioma (H4) cells overexpressing the 695 form of human APP. All cells were prepared by the stable introduction of a cDNA coding for human APP. All cell lines were maintained in DMEM containing 10% FBS and antibiotics.
In order to characterize the effects of cholesterol depletion, cell cultures of each cell line were cultured on six-well plates for 4 days in DMEM containing 10% FCLPDS, in the presence of lovastatin or lovastatin acid (LA).
For measurement of APP processing and Aβ peptide formation, medium was removed and the cells were washed once with PBS and then incubated for 2 hours in DMEM containing 1 mCi/ml [^35S] Methionine. After this “pulse” period, the cells were either (1) lysed to measure the total labeled APPi and APPm at time zero, or (2) the cells were incubated for 2 hours in fresh, unlabeled complete medium (“chase”) and then lysed. Then the cell supernatants and lysates were treated with the appropriate antibody to calculate the amounts of APPi, APPm, APPs, and Aβ peptides.
To measure Aβ peptides, or to measure APPs, which is the secreted carboxyl-terminal truncated form, cell supernatants were incubated with antibody 6E10,which recognizes the first 15 amino acids of the Aβ peptide that correspond to the COOH-terminal amino acids of APPs. See Buxbaum, J. D., et al. (I 994) Proc Natl Acad Sci USA, 91:4489-93, which is incorporated herein by reference.
The incubations with antibody 6E10 or antibody 369 were performed at 4° C. for 75 minutes followed by a 45 minute incubation at 4° C. with either agarose-linked anti-mouse IgG for antibody 6E1O or protein A sepharose for antibody 369. The beads were then washed three times for 10 minutes and then run on either a 10-20% Tris-Tricine Gel for APPs and Aβ peptides or an 8% polyacrylamide gel for cell-associated APP. The gels were dried and exposed to a Phosphor Imager® screen (STORM 860, Molecular Dynamics) and exposed for a minimum of two days. The protein bands were visualized on a STORM 860 Phosphor Imager® (Molecular Dynamics) and quantitated using ImageQuant® (Molecular Dynamics).
To determine whether a decrease in cholesterol is associated with a change in the amount of extracellular Aβ peptides, the H4, MDCK, and CHO cells, expressing human APPm were incubated for 4 days in the presence or absence of 0.5 μM LA. The cells were then incubated in serum-free media containing 1 mCi/mi [^35S] […] Relative levels of extracellular Aβ peptides were determined under each condition by quantitative PhosphorImager autoradiography. […]

The subject of experiment [2] is Human neuroglioma (H4) cells overexpressing the 695 form of human APP. The experiment in a line: APP processing ([35S]-labeled APPs and APPm) in H4 cells. Format: cell-based. The protocol:
as §1
For measurement of APP processing and Aβ peptide formation, medium was removed and the cells were washed once with PBS and then incubated for 2 hours in DMEM containing 1 mCi/ml [^35S] Methionine. […]
The incubations with antibody 6E10 or antibody 369 were performed at 4° C. for 75 minutes followed by a 45 minute incubation at 4° C. with either agarose-linked anti-mouse IgG for antibody 6E1O or protein A sepharose for antibody 369. […] The protein bands were visualized on a STORM 860 Phosphor Imager® (Molecular Dynamics) and quantitated using ImageQuant® (Molecular Dynamics).
To determine whether cholesterol depletion affects other aspects of APP processing, H4 cells were incubated for four days in the presence or absence of 0.5 μM LA, and subjected to metabolic labeling. The levels of [^35S]-labeled APPi and APPm were determined by immunoprecipitation from cell lysates with an antibody against the COOH-terminal of APP, followed by quantitative autoradiography. […]

For `CC[C@H](C)C(=O)O[C@H]1C[C@@H](C)C=C2C=C[C@H](C)[C@H](CC[C@@H](O)C[C@@H](O)CC(=O)O)[C@H]21` [LA, lovastatin acid], the “[35S]-labeled intracellular Aβ peptides in cell lysates” value in experiment [1] (0.5 μM LA) is on record as “No detectable levels”. Besides, in experiment [1], the “decrease of extracellular Aβ peptides as compared to the untreated cells” value is reported as 40-60%. The “concentration sufficient to significantly (p<0.001) decrease extracellular Aβ peptides” value in experiment [1] (each cell type, various LA concentrations) is at least 0.05 µM. In experiment [2] (0.5 μM LA (FIG. 6)), the “effects on maturation ([35S]-labeled APPm levels)” value is recorded as “not sufficient to account for the decrease in Aβ peptide levels”. In experiment [2] (H4 cells, 0.5 μM LA, 4 days (FIG. 5)), the “[35S]-labeled APPs formation compared to control cells” value is given as “modest decrease”.
In the case of `CC[C@H](C)C(=O)O[C@H]1C[C@@H](C)C=C2C=C[C@H](C)[C@H](CC[C@@H]3C[C@@H](O)CC(=O)O3)[C@H]21` [lovastatin], the “decrease of extracellular Aβ peptides as compared to the untreated cells” value in experiment [1] was under 20%.
